The target of one experiment is EGFR T790M (Homo sapiens, UniProt P00533, T790M). The experiment is described as follows: EGFR Enzyme Assay. Format: biochemical. Particulars: 1 uM compound, read-out: T790M (% inh @ 1 uM). As to the method:
The following TABLE III lists compounds representative of the invention and their activity in EGFR assays. In these assays, the following grading was used: A: >50% @1 μM; B: <50% @ 1 μM.

The next experiment has as its target BTK (Homo sapiens, UniProt Q06187). Nature of the experiment: BTK Enzyme Assay. In kind it is biochemical. Particulars: 1 uM compound; read-out: BTK (% inh @ 1 uM). As to the method:
The following TABLE II lists compounds representative of the invention and their activity in BTK assays. In these assays, the following grading was used: A: >30% inhibition @1 μM; B: <30% inhibition @1 μM.

SMILES strings stand for the structures. Some results are limits rather than exact numbers.

BTK, sequence (Q06187 whole entry): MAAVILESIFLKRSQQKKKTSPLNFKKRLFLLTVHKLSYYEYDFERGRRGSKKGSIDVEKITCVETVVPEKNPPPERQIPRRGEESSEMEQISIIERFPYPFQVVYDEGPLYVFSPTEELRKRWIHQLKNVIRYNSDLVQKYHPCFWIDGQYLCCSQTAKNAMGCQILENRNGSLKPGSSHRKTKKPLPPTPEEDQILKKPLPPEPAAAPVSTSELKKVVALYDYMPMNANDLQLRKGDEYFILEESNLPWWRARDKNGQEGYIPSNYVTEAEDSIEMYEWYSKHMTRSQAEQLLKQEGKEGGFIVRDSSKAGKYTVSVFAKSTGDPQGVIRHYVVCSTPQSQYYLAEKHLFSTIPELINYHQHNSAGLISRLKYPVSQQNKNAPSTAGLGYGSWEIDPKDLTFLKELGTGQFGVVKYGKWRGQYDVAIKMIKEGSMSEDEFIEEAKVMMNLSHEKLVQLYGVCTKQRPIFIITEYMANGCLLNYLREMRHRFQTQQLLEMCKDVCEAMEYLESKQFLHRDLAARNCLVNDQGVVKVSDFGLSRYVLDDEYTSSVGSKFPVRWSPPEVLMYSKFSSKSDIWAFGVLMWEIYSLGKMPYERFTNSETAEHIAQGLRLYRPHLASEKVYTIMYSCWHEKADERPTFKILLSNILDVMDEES
EGFR T790M, sequence (P00533 25-1210 T790M): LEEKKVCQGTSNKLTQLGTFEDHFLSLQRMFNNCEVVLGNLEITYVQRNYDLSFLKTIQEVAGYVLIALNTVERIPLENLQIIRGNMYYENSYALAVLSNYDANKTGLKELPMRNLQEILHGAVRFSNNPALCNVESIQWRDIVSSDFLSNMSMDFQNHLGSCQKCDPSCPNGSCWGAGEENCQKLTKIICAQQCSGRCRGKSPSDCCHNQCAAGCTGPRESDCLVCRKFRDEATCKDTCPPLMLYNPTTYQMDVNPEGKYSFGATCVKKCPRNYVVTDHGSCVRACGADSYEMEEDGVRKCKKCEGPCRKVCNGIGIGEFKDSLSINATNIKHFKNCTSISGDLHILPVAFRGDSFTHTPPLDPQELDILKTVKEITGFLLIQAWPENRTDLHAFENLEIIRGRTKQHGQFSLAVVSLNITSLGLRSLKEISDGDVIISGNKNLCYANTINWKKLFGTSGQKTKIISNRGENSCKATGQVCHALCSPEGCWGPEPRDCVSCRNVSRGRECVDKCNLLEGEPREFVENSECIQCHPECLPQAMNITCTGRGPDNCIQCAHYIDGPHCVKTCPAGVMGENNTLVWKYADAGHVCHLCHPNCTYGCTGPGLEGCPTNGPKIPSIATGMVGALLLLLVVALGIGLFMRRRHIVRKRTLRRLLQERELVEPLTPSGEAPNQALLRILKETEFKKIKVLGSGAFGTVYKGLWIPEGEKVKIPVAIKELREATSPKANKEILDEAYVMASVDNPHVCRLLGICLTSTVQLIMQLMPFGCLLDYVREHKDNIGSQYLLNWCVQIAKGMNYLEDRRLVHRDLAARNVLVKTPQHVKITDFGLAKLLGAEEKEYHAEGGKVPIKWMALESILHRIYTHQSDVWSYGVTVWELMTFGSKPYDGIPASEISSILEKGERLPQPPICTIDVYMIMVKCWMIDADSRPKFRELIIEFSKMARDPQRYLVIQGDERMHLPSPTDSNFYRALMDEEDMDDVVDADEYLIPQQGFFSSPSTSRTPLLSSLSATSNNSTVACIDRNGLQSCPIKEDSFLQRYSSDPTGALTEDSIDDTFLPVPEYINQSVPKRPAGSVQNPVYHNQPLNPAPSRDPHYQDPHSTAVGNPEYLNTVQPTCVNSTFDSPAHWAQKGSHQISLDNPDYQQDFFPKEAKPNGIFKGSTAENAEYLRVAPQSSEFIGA

On to `C=CC(=O)Nc1cc(Nc2nc(-c3cccc(NC)c3)c3ccsc3n2)c(OC)cc1N(C)CC` [Compound 41, N-[2-[ethyl(methyl)amino]-4-methoxy-5-[[4-[3-(methylamino)phenyl]thieno[2,3-d]pyrimidin-2-yl]amino]phenyl]prop-2-enamide], for which the inhibition at 1 µM on EGFR T790M was > 50%; on BTK it was > 30%.
The matching figures for `C=CC(=O)Nc1cc(Nc2nc(-c3ccc(NC)cc3)c3sccc3n2)c(OC)cc1N1CCOCC1` [Compound 37, N-[4-methoxy-5-[[4-[4-(methylamino)phenyl]thieno[3,2-d]pyrimidin-2-yl]amino]-2-morpholino-phenyl]prop-2-enamide]: > 50% and > 30%.
The matching figures for `C=CC(=O)Nc1cc(N(C)c2nc(-c3cn(C)c4ccccc34)c3sccc3n2)c(OC)cc1N1CCOCC1` [Compound 52, N-[4-methoxy-5-[methyl-[4-(1-methylindol-3-yl)thieno[3,2-d]pyrimidin-2-yl]amino]-2-morpholino-phenyl]prop-2-enamide]: < 50% and < 30%.
The matching figures for `C=CC(=O)Nc1cc(Nc2nc(-c3ccccc3)c3sccc3n2)c(OC)cc1N1CCN(C)CC1` [Compound 26, N-[4-methoxy-2-(4-methylpiperazin-1-yl)-5-[(4-phenylthieno[3,2-d]pyrimidin-2-yl)amino]phenyl]prop-2-enamide]: < 50% and > 30%.
For the molecule `C=CC(=O)Nc1cc(Nc2nc(-c3ccccc3N(C)C)c3ccsc3n2)c(OC)cc1N1CCN(C)CC1` [Compound 50, N-[5-[[4-[2-(dimethylamino)phenyl]thieno[2,3-d]pyrimidin-2-yl]amino]-4-methoxy-2-(4-methylpiperazin-1-yl)phenyl]prop-2-enamide], the results for the inhibition at 1 µM on EGFR T790M and at BTK were < 50% and > 30%, respectively.
Regarding `C=CC(=O)Nc1cc(NC2=NC(c3cccc(NC(C)(C)C)c3)C3SC=CC3=N2)c(OC)cc1N(C)C` (stereo not shown) [Compound 5, N-[5-[[4-[3-(tert-butylamino)phenyl]-4,4a-dihydrothieno[3,2-d]pyrimidin-2-yl]amino]-2-(dimethylamino)-4-methoxy-phenyl]prop-2-enamide], the inhibition at 1 µM is > 50% on EGFR T790M and > 30% on BTK.
In the same order, the values of `C=CC(=O)Nc1cc(NC2=NC(c3ccccc3)C3SC=CC3=N2)c(OC)cc1N1CCN(C)CC1` (stereo not shown) [Compound 18, N-[4-methoxy-2-(4-methylpiperazin-1-yl)-5-[(4-phenyl-4,4a-dihydrothieno[3,2-d]pyrimidin-2-yl)amino]phenyl]prop-2-enamide] are > 50% and < 30%.
With `C=CC(=O)Nc1cc(NC2=NC(c3cccc(NC)c3)C3SC=CC3=N2)c(OC)cc1N(C)CCN1CCOCC1` (stereo not shown) [Compound 9, N-[4-methoxy-5-[[4-[3-(methylamino)phenyl]-4,4a-dihydrothieno[3,2-d]pyrimidin-2-yl]amino]-2-[methyl(2-morpholinoethyl)amino]phenyl]prop-2-enamide], the inhibition at 1 µM at EGFR T790M is < 50%; on BTK, > 30%.
In the same order, the values of `C=CC(=O)Nc1cc(Nc2nc(-c3cccc(N(C)C)c3)c3sccc3n2)c(OC)cc1N1CCN(C)CC1` [Compound 24, N-[5-[[4-[3-(dimethylamino)phenyl]thieno[3,2-d]pyrimidin-2-yl]amino]-4-methoxy-2-(4-methylpiperazin-1-yl)phenyl]prop-2-enamide] are < 50% and > 30%.
The matching figures for `C=CC(=O)Nc1cc(NC2=NC(c3cccc(N(C)C)c3)C3SC=CC3=N2)c(OC)cc1N1CCN(C)CC1` (stereo not shown) [Compound 6, N-[5-[[4-[3-(dimethylamino)phenyl]-4,4a-dihydrothieno[3,2-d]pyrimidin-2-yl]amino]-4-methoxy-2-(4-methylpiperazin-1-yl)phenyl]prop-2-enamide]: < 50% and > 30%.
The matching figures for `C=CC(=O)Nc1cc(Nc2nc(-c3c[nH]c4ccccc34)c3sccc3n2)c(OC)cc1N1CCC(N(C)C)CC1` [Compound 2, N-[2-[4-(dimethylamino)-1-piperidyl]-5-[[4-(1H-indol-3-yl)thieno[3,2-d]pyrimidin-2-yl]amino]-4-methoxy-phenyl]prop-2-enamide]: > 50% and > 30%.
For `C=CC(=O)Nc1cc(Nc2nc(-c3c[nH]c4ccccc34)c3sccc3n2)c(OC)cc1N(C)CCN(C)C` [Compound 1, N-[2-[2-(dimethylamino)ethyl-methyl-amino]-5-[[4-(1H-indol-3-yl)thieno[3,2-d]pyrimidin-2-yl]amino]-4-methoxy-phenyl]prop-2-enamide], the inhibition at 1 µM was > 50% at EGFR T790M and > 30% on BTK.
Regarding `C=CC(=O)Nc1cc(Nc2nc(-c3cn(C)c4ccccc34)c3sccc3n2)c(OC)cc1N1CCOCC1` [Compound 36, N-[4-methoxy-5-[[4-(1-methylindol-3-yl)thieno[3,2-d]pyrimidin-2-yl]amino]-2-morpholino-phenyl]prop-2-enamide], the inhibition at 1 µM on EGFR T790M is < 50%; on BTK, > 30%.
In the same order, the values of `C=CC(=O)Nc1cc(Nc2nc(-c3ccccc3NC)c3ccsc3n2)c(OC)cc1N1CCN(C)CC1` [Compound 43, N-[4-methoxy-5-[[4-[2-(methylamino)phenyl]thieno[2,3-d]pyrimidin-2-yl]amino]-2-(4-methylpiperazin-1-yl)phenyl]prop-2-enamide] are < 50% and < 30%.

The record behind these values is patent US10844074B2, “Heterocycle compounds and uses thereof” (ZHEJIANG JIANFENG-YIEN BIOTECHNOLOGY CO., LTD., priority 2015, dated 2020).
